According to US6448251B1, “Zwitterionic-fatty acid compounds having anti-inflammatory properties” (priority 1997, dated 2002):
Where two headings read alike, the source gives them in different places.

Assays:
[1] = test system: erythema induced by the capsaicin; assay: Protocol II dermal irritation: capsaicin-induced erythema on human forearm, infra-red reflection; assay type: in vivo; details: 0.1% capsaicin on forearm of human volunteer; candidate applied when erythema appeared 10-15 minutes later; optical reflection at 818 nanometers measured 30 minutes later; baseline control 3.5, capsaicin only 0.5
Excerpt: A new screening method was developed to make rapid assessments on the anti-inflammatory action of the new candidates. The procedure involved the use of a natural irritant, capsaicin*, which candidate is derived from crushed hot peppers (capsicum), and measuring the amount of erythema reduction by the test candidates. Inflammatory reaction are characterzed by pain and tenderness associated with swelling and redness. Most of these clinical signs are attributed to the large influx of blood into the area. Vaso-constricting agents can reduce the amount of swelling and erythema. Hydrocortisone is, in fact, assayed by its ability to blanch the skin, which is a vasoconstrictive effect. Applying a solution of 0.1% of capsaicin to the forearm of a human volunteer will produce an erythema in less than 20 minutes, usually under five minutes. The degree of erythema is measured with an infra-red detector. An infra-red beam of light at 818 nanometers is directed into the skin over the test sie and the amount of infra-red returned to the surface by reflection indicates the amount absorbed in the skin. An untreated skin area is used as a baseline control, a capsaicin treated area is used as the negative control, and a capsaicin+hydrocortisone (a known vasoconstrictor) serves as the positive control. A positive effect means the erythema induced by the capsaicin is reduced, or is eliminated, as measured by the infra-red detector. The following reults were obtained with this evaluative protocol. The capsaicin was applied to the skin, and when erythema appeared 10-15 minutes later, the test candidate agent was applied, and the optical reflection measurements were made 30 minutes later.

[2] = intravenous injection, radiolabelled; cited from earlier work
[3] = test system: inflammation; details: cited from earlier work

| Compound | Millivolts (reflection voltage) [1] [Millivolts] | clearance [2] | further results |
| --- | --- | --- | --- |
| C[C@]12CCC(=O)C=C1CC[C@@H]1[C@@H]2[C@@H](O)C[C@@]2(C)[C@H]1CC[C@]2(O)C(=O)CO [Hydrocortisone] | 5.0 | – | – |
| HEPES oleate, sodium salt [Compound I] | 3.7 | – | – |
| CCCCCC=CCC=CCCCCCCCC(=O)OCCN1CCN(CCS(=O)(=O)O)CC1 [Compound V, Hepes-Linoleate Ester] | 3.8 | – | – |
| CC(=O)OCCN1CCN(CCS(=O)(=O)[O-])CC1.[Na+] [Compound VI, Hepes-Acetate Ester] | 3.0 | – | – |
| NCCS(=O)(=O)O [taurine, 2-amino ethanesulfonic acid] | – | rapid clearance | anti-inflammatory activity ([3]; administered centrally): demonstrated anti-inflammatory activity; anti-inflammatory activity ([3]; administered subcutaneously or interperitoneally): not |
| O=S(=O)(O)CCN1CCN(CCO)CC1 [HEPES, 4-(2-Hydroxyethyl)-1-piperazine-ethanesulfonic acid] | – | rapid clearance | half-life compared with taurine [2]: significantly longer half-life; anti-inflammatory effects compared with taurine ([3]; HEPES sodium salt and the acid, Mahon et al): greater anti-inflammatory effects |
